Test results taken from article PMC12415608 (Molecular biology of the cell, 2025).

Target: PaFimX (Pseudomonas aeruginosa, UniProt Q9HUK6)
Assay: isothermal titration calorimetry
Format: binding

**Q.** For `Nc1nc2c(ncn2[C@@H]2O[C@@H]3CO[P@](=O)(O)O[C@H]4[C@@H](O)[C@H](n5cnc6c(=O)[nH]c(N)nc65)O[C@@H]4CO[P@](=O)(O)O[C@H]3[C@H]2O)c(=O)[nH]1` [cdG], which Kd is on record?
**A.** 144 nM
